Assay results reported in US12552752B2, “Atropisomers of pyridazinone derivatives as herbicides” (FMC Corporation, priority 2020, dated 2026).
Several values for one entry are separate records, joined by “and”; a condition that tells them apart may be missing. Equal entries are not always repeated.

Key:
Type in all cases: in vivo
[1] = tested on: ryegrass, Italian (RGI, Lolium multiflorum); experiment: Test A preemergence, Italian ryegrass; details: PRE, 0 to 100 scale, approximately 10 d
Text: (§1) Seeds of plant species selected from barnyardgrass (BYG, Echinochloa crus-galli), kochia (KOC, Kochia scoparia), ragweed (common ragweed, Ambrosia elatior), ryegrass, Italian (RGI, Lolium multiflorum), foxtail, giant (FTI, Setaria faberii), foxtail, green (Setaria viridis) and pigweed (PWR, Amaranthus retroflexus) were planted into a blend of loam soil and sand and treated preemergence with a directed soil spray using test chemicals formulated in a non-phytotoxic solvent mixture which included a surfactant. At the same time, plants selected from these weed species and also wheat (WWT, Triticum aestivum), corn (CPI, Zea mays), blackgrass (BKG, Alopecurus myosuroides) and galium (GAL, catchweed bedstraw, Galium aparine) were planted in pots containing the same blend of loam soil and sand and treated with postemergence applications of test chemicals formulated in the same manner Plants ranged in height from 2 to 10 cm and were in the one- to two-leaf stage for the postemergence treatment. Treated plants and untreated controls were maintained in a greenhouse for approximately 10 d, after which time all treated plants were compared to untreated controls and visually evaluated for injury. Plant response ratings, summarized in Tables 1-4, are based on a 0 to 100 scale where 0 is no effect and 100 is complete control. A dash (−) response means no test result. The ratings are followed by a letter representing the symptomology where S is Albinism, C is Chlorosis, G is Growth Inhibition and E is Emergence.

[2] = tested on: foxtail, giant (FTI, Setaria faberii); experiment: Test A postemergence, giant foxtail; details: POST, 0 to 100 scale, approximately 10 d
Text: as §1

[3] = tested on: pigweed (PWR, Amaranthus retroflexus); experiment: Test A postemergence, pigweed; details: POST, 0 to 100 scale, approximately 10 d
Text: as §1

[4] = tested on: kochia (KOC, Kochia scoparia); experiment: Test A postemergence, kochia; details: POST, 0 to 100 scale, approximately 10 d
Text: as §1

[5] = tested on: barnyardgrass (BYG, Echinochloa crus-galli); experiment: Test A postemergence, barnyardgrass; details: POST, 0 to 100 scale, approximately 10 d
Text: as §1

[6] = tested on: blackgrass (BKG, Alopecurus myosuroides); experiment: Test A postemergence, blackgrass; details: POST, 0 to 100 scale, approximately 10 d
Text: as §1

[7] = tested on: kochia (KOC, Kochia scoparia); experiment: Test A preemergence, kochia; details: PRE, 0 to 100 scale, approximately 10 d
Text: as §1

[8] = tested on: ragweed (common ragweed, Ambrosia elatior); experiment: Test A preemergence, ragweed; details: PRE, 0 to 100 scale, approximately 10 d
Text: as §1

[9] = tested on: galium (GAL, catchweed bedstraw, Galium aparine); experiment: Test A postemergence, galium; details: POST, 0 to 100 scale, approximately 10 d
Text: as §1

[10] = tested on: ryegrass, Italian (RGI, Lolium multiflorum); experiment: Test A postemergence, Italian ryegrass; details: POST, 0 to 100 scale, approximately 10 d
Text: as §1

[11] = tested on: foxtail, giant (FTI, Setaria faberii); experiment: Test A preemergence, giant foxtail; details: PRE, 0 to 100 scale, approximately 10 d
Text: as §1

[12] = tested on: pigweed (PWR, Amaranthus retroflexus); experiment: Test A preemergence, pigweed; details: PRE, 0 to 100 scale, approximately 10 d
Text: as §1

[13] = tested on: wheat (WWT, Triticum aestivum); experiment: Test A postemergence, wheat; details: POST, 0 to 100 scale, approximately 10 d
Text: as §1

[14] = tested on: ragweed (common ragweed, Ambrosia elatior); experiment: Test A postemergence, ragweed; details: POST, 0 to 100 scale, approximately 10 d
Text: as §1

corn (CPI, Zea mays) = experiment: Test A postemergence, corn; details: POST, 0 to 100 scale, approximately 10 d, listed as drawing 29
Text: as §1

[15] = tested on: barnyardgrass (BYG, Echinochloa crus-galli); experiment: Test A preemergence, barnyardgrass; details: PRE, 0 to 100 scale, approximately 10 d, listed as drawing 29
Text: as §1

[16] = 62 g ai/ha, listed as drawing 32
[17] = 16 g ai/ha, listed as drawing 32
[18] = 31 g ai/ha, listed as drawing 32
[19] = 125 g ai/ha, listed as drawing 32
[20] = 31 g ai/ha, listed as drawing 29
[21] = 125 g ai/ha, listed as drawing 29

## CCC(=O)Oc1c(Cl)nn(C)c(=O)c1-c1c(C)ccc2ccccc12 (racemic) [5 (Enantiomer 5B)]
[1]; [16]
  Plant response rating RGI: 10 S
[2]; [17]
  Plant response rating FTI: 20 S
[2]; [18]
  Plant response rating FTI: 60 S and 50 S
[2]; [16]
  Plant response rating FTI: 60 S
[2]; [19]
  Plant response rating FTI: 90 S
[3]; [17]
  Plant response rating PWR: 90 S
[3]; [19]
  Plant response rating PWR: 100 S
[4]; [17]
  Plant response rating KOC: 50 S
[4]; [16]
  Plant response rating KOC: 70 S
[4]; [19]
  Plant response rating KOC: 80 S and 90 S
[5]; [17]
  Plant response rating BYG: 30 S
[5]; [16]
  Plant response rating BYG: 40 S
[5]; [19]
  Plant response rating BYG: 80 S and 90 S
[6]; [17]
  Plant response rating BKG: 20 S
[6]; [16]
  Plant response rating BKG: 40 G
[6]; [19]
  Plant response rating BKG: 50 S and 80 S
[7]; [16]
  Plant response rating KOC: 50 S
[7]; [19]
  Plant response rating KOC: 70 S and 50 S
[8]; [17]
  Plant response rating RWC: 20 S
[8]; 31 g ai/ha
  Plant response rating RWC: 70 S and 50 S
[8]; [16]
  Plant response rating RWC: 70 S
[8]; [19]
  Plant response rating RWC: 100 C and 90 C
[9]; [18]
  Plant response rating GAL: 90 S and 100 S
[10]; [17]
  Plant response rating RGI: 40 C
[10]; [18]
  Plant response rating RGI: 70 C and 80 C
[10]; [16]
  Plant response rating RGI: 80 C
[11]; [16]
  Plant response rating FTI: 30 S
[12]; [17]
  Plant response rating PWR: 0
[12]; [16]
  Plant response rating PWR: 60 G
[13]; [17]
  Plant response rating WWT: 0
[13]; [16]
  Plant response rating WWT: 10 S
[13]; [19]
  Plant response rating WWT: 50 S
[14]; [17]
  Plant response rating RWC: 90 S
[14]; [19]
  Plant response rating RWC: 100 S and 90 S

## CCC(=O)Oc1c(Cl)nn(C)c(=O)c1-c1c(C)ccc2ccc(C)cc12 (racemic) [4 (Enantiomer 4A)]
[1]; [20]
  Plant response rating RGI: 0
[1]; [21]
  Plant response rating RGI: 10 C
[2]; [20]
  Plant response rating FTI: 0
[2]; [21]
  Plant response rating FTI: 30 S
[3]; [20]
  Plant response rating PWR: 90 S
[3]; [21]
  Plant response rating PWR: 100 C
Corn (CPI, Zea mays); 31 g ai/ha
  Plant response rating CPI: 0
Corn (CPI, Zea mays); 125 g ai/ha
  Plant response rating CPI: 0
[4]; 31 g ai/ha
  Plant response rating KOC: 50 S
[4]; [21]
  Plant response rating KOC: 60 S
[5]; [20]
  Plant response rating BYG: 0
[5]; [21]
  Plant response rating BYG: 30 C
[6]; [20]
  Plant response rating BKG: 10 C 10 C
[6]; [21]
  Plant response rating BKG: 10 C 10 C
[15]; 31 g ai/ha
  Plant response rating BYG: 0
[15]; 125 g ai/ha
  Plant response rating BYG: 0
[7]; 31 g ai/ha
  Plant response rating KOC: 10 C
[7]; [21]
  Plant response rating KOC: 50 S
[9]; [20]
  Plant response rating GAL: 80 S
[9]; [21]
  Plant response rating GAL: 100 C
[10]; [20]
  Plant response rating RGI: 10 C
[10]; [21]
  Plant response rating RGI: 20 C
[11]; [20]
  Plant response rating FTI: 0
[11]; [21]
  Plant response rating FTI: 10 S
[12]; [20]
  Plant response rating PWR: 90 C
[12]; [21]
  Plant response rating PWR: 90 C
[13]; [20]
  Plant response rating WWT: 0
[13]; [21]
  Plant response rating WWT: 0
[14]; [20]
  Plant response rating RWC: 80 S
[14]; [21]
  Plant response rating RWC: 90 S
